In paper PMC8119466, “A screen of FDA-approved drugs identifies inhibitors of protein tyrosine phosphatase 4A3 (PTP4A3 or PRL-3)” (Scientific Reports, 2021):
Counter-ions that a name gives are not always drawn.

Tests used:
Format in all cases: biochemical
Details in all cases: FDA-approved drug screen
[1] = target: T1, recombinant PRL-1 (Homo sapiens, UniProt Q93096); experiment: In vitro phosphatase assay (DiFMUP hydrolysis), PRL-1; also: test concentration or dose not given here
T1 construct: 6xHis (N, cleaved yes); made in house; host or cells: E. coli One Shot BL21 Star
T1 sequence (Q93096 1-173): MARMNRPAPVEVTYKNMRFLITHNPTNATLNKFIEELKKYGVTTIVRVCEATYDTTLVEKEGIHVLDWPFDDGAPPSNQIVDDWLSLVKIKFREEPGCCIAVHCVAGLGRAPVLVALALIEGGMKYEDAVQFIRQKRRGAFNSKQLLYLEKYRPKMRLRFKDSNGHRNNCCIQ

[2] = target: T2, recombinant PRL-3 (Homo sapiens, UniProt O75365); experiment: In vitro phosphatase assay (DiFMUP hydrolysis), PRL-3; also: test concentration or dose not given here
T2 construct: 6xHis (N, cleaved yes); made in house; host or cells: E. coli One Shot BL21 Star
T2 sequence (O75365 whole entry): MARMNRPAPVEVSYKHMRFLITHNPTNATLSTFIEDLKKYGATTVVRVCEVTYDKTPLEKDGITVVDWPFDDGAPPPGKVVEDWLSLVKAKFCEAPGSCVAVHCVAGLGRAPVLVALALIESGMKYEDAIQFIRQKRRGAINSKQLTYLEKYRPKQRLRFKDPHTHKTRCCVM

[3] = target: T3, recombinant PRL-2 (Homo sapiens, UniProt Q12974); experiment: In vitro phosphatase assay (DiFMUP hydrolysis), PRL-2;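 also: PRL-2 activity read as DiFMUP hydrolysis after 20 min at room temperature with drug, enzyme first pre-reduced at 4 °C for 20 min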
T3 construct: 6xHis (N, cleaved yes); made in house; host or cells: E. coli One Shot BL21 Star
T3 sequence (Q12974 1-167): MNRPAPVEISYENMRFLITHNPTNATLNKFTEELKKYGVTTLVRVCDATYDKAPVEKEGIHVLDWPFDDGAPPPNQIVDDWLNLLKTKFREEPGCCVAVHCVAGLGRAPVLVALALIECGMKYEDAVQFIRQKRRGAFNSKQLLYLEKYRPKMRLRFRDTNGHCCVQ

CC(=O)OCC(=O)[C@@]1(O)[C@H](C)C[C@H]2[C@@H]3CCC4=CC(=O)C=C[C@]4(C)[C@@]3(F)[C@@H](O)C[C@@]21C [Dexamethasone Acetate]
% Phosphatase Activity (compared to DMSO) PRL-1 ([1]; compared to DMSO): 90%
% Phosphatase Activity (compared to DMSO) PRL-3 ([2]; compared to DMSO): 86%
% Phosphatase Activity (compared to DMSO) PRL-2 ([3]; compared to DMSO): 93%

NS(=O)(=O)c1cc2c(cc1Cl)N=C(CSCc1ccccc1)NS2(=O)=O [Benzthiazide]
% Phosphatase Activity (compared to DMSO) PRL-1 ([1]; compared to DMSO): 111%
% Phosphatase Activity (compared to DMSO) PRL-3 ([2]; compared to DMSO): 99%
% Phosphatase Activity (compared to DMSO) PRL-2 ([3]; compared to DMSO): 115%

CN1CCC(=C2c3ccccc3CC(=O)c3sccc32)CC1 [Ketotifen Fumarate]
% Phosphatase Activity (compared to DMSO) PRL-1 ([1]; compared to DMSO): 93%
% Phosphatase Activity (compared to DMSO) PRL-3 ([2]; compared to DMSO): 89%
% Phosphatase Activity (compared to DMSO) PRL-2 ([3]; compared to DMSO): 97%

Nc1ncn([C@@H]2O[C@H](CO)[C@@H](O)[C@H]2O)c(=O)n1 [Azacitidine]
% Phosphatase Activity (compared to DMSO) PRL-1 ([1]; compared to DMSO): 78%
% Phosphatase Activity (compared to DMSO) PRL-3 ([2]; compared to DMSO): 89%
% Phosphatase Activity (compared to DMSO) PRL-2 ([3]; compared to DMSO): 93%

COc1cc(/C=C/C(=O)N2CCN(CC(=O)N3CCCC3)CC2)cc(OC)c1OC.O=C(O)/C=C\C(=O)O [Cinepazide maleate]
% Phosphatase Activity (compared to DMSO) PRL-1 ([1]; compared to DMSO): 112%
% Phosphatase Activity (compared to DMSO) PRL-3 ([2]; compared to DMSO): 113%
% Phosphatase Activity (compared to DMSO) PRL-2 ([3]; compared to DMSO): 134%

CC[C@H](C)C(=O)O[C@H]1C[C@@H](C)C=C2C=C[C@H](C)[C@H](CC[C@@H]3C[C@@H](O)CC(=O)O3)[C@H]21 [Lovastatin]
% Phosphatase Activity (compared to DMSO) PRL-1 ([1]; compared to DMSO): 89%
% Phosphatase Activity (compared to DMSO) PRL-3 ([2]; compared to DMSO): 87%
% Phosphatase Activity (compared to DMSO) PRL-2 ([3]; compared to DMSO): 93%

CCn1cc(C(=O)O)c(=O)c2cnc(N3CCCC3)nc21 [Piromidic Acid]
% Phosphatase Activity (compared to DMSO) PRL-1 ([1]; compared to DMSO): 105%
% Phosphatase Activity (compared to DMSO) PRL-3 ([2]; compared to DMSO): 96%
% Phosphatase Activity (compared to DMSO) PRL-2 ([3]; compared to DMSO): 106%

CNC[C@H](O)[C@@H](O)[C@H](O)[C@H](O)CO.Cc1c(Nc2ncccc2C(=O)O)cccc1C(F)(F)F [Flunixin Meglumin]
% Phosphatase Activity (compared to DMSO) PRL-1 ([1]; compared to DMSO): 94%
% Phosphatase Activity (compared to DMSO) PRL-3 ([2]; compared to DMSO): 80%
% Phosphatase Activity (compared to DMSO) PRL-2 ([3]; compared to DMSO): 88%

CCOC(=O)[C@H](CCc1ccccc1)N[C@@H](C)C(=O)N1Cc2cc(OC)c(OC)cc2C[C@H]1C(=O)O [Moexipril HCl]
% Phosphatase Activity (compared to DMSO) PRL-1 ([1]; compared to DMSO): 103%
% Phosphatase Activity (compared to DMSO) PRL-3 ([2]; compared to DMSO): 83%
% Phosphatase Activity (compared to DMSO) PRL-2 ([3]; compared to DMSO): 98%

[H]/N=C(/N)N[C@H]1[C@H](O)[C@@H](O)[C@H](O[C@@H]2O[C@@H](C)[C@](O)(C=O)[C@H]2O[C@@H]2O[C@@H](CO)[C@H](O)[C@@H](O)[C@@H]2NC)[C@@H](N/C(N)=N\[H])[C@@H]1O [Streptomycin sulfate]
% Phosphatase Activity (compared to DMSO) PRL-1 ([1]; activity compared to DMSO): 105%
% Phosphatase Activity (compared to DMSO) PRL-3 ([2]; activity compared to DMSO): 85%
% Phosphatase Activity (compared to DMSO) PRL-2 ([3]; activity compared to DMSO): 89%

C[C@](N)(Cc1ccc(O)c(O)c1)C(=O)O [Methyldopa]
% Phosphatase Activity (compared to DMSO) PRL-1 ([1]; compared to DMSO): 98%
% Phosphatase Activity (compared to DMSO) PRL-3 ([2]; compared to DMSO): 70%
% Phosphatase Activity (compared to DMSO) PRL-2 ([3]; compared to DMSO): 95%

CN1C[C@@H]2C[C@H]1CN2c1cc2c(cc1F)c(=O)c(C(=O)O)cn2C1CC1.CS(=O)(=O)O [Danofloxacin Mesylate]
% Phosphatase Activity (compared to DMSO) PRL-1 ([1]; compared to DMSO): 998%
% Phosphatase Activity (compared to DMSO) PRL-3 ([2]; compared to DMSO): 146%
% Phosphatase Activity (compared to DMSO) PRL-2 ([3]; compared to DMSO): 757%

S=c1nc[nH]c2nc[nH]c12 [Mercaptopurine (6-MP)]
% Phosphatase Activity (compared to DMSO) PRL-1 ([1]; compared to DMSO): 93%
% Phosphatase Activity (compared to DMSO) PRL-3 ([2]; compared to DMSO): 74%
% Phosphatase Activity (compared to DMSO) PRL-2 ([3]; compared to DMSO): 76%

CCC(=O)O[C@@H](O[P@](=O)(CCCCc1ccccc1)CC(=O)N1C[C@H](C2CCCCC2)C[C@H]1C(=O)[O-])C(C)C.[Na+] [Fosinopril Sodium]
% Phosphatase Activity (compared to DMSO) PRL-1 ([1]; compared to DMSO): 91%
% Phosphatase Activity (compared to DMSO) PRL-3 ([2]; compared to DMSO): 80%
% Phosphatase Activity (compared to DMSO) PRL-2 ([3]; compared to DMSO): 69%

CO[C@H]1C[C@@H]2CC[C@@H](C)[C@@](O)(O2)C(=O)C(=O)N2CCCC[C@H]2C(=O)O[C@H]([C@H](C)C[C@@H]2CC[C@@H](OCCO)[C@H](OC)C2)CC(=O)[C@H](C)/C=C(\C)[C@@H](O)[C@@H](OC)C(=O)[C@H](C)C[C@H](C)/C=C/C=C/C=C/1C [Everolimus (RAD001)]
% Phosphatase Activity (compared to DMSO) PRL-1 ([1]; compared to DMSO): 86%
% Phosphatase Activity (compared to DMSO) PRL-3 ([2]; compared to DMSO): 76%
% Phosphatase Activity (compared to DMSO) PRL-2 ([3]; compared to DMSO): 86%

Nc1nc(N)nc(NC2CC2)n1 [Cyromazine]
% Phosphatase Activity (compared to DMSO) PRL-1 ([1]; compared to DMSO): 90%
% Phosphatase Activity (compared to DMSO) PRL-3 ([2]; compared to DMSO): 78%
% Phosphatase Activity (compared to DMSO) PRL-2 ([3]; compared to DMSO): 101%
